Measurements taken from PMC6412401 (Molecules, 2019).
Entries after “also recorded” stand apart in the source; their conditions may differ.

Key:
Type in all cases: biochemical
recombinant human MAO-B [1] = target: T1, recombinant human MAO-B (Homo sapiens, UniProt P27338); experiment: Reversibility of binding, enzyme-inhibitor complex equilibrium dialysis
T1 construct: purchased BD Biosciences (Bedford, MA, USA)
T1 sequence (P27338 1-520): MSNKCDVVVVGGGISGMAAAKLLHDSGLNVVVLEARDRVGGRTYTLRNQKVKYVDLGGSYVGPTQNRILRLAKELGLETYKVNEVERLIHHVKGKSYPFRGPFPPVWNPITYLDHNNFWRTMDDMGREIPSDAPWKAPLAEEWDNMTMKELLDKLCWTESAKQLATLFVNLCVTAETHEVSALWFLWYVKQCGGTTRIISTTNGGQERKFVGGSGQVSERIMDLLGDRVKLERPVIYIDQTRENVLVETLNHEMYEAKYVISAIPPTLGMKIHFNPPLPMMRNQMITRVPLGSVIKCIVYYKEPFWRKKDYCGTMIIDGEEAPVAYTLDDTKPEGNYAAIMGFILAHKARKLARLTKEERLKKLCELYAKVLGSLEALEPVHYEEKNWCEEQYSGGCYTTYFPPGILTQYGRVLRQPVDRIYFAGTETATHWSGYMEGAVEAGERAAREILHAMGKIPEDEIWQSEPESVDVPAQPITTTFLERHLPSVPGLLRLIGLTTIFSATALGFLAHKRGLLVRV
Method: The activity of the enzyme was analyzed before and after the dialysis (Figure 4).
The inhibitors bind with the target enzyme through the formation of an enzyme-inhibitor complex. The formation of the enzyme-inhibitor complex may be accelerated in the presence of the high concentration of the inhibitor. […] After 20 min incubation at 37 °C, the reaction was stopped by chilling in an ice bath. All of the samples were dialyzed against potassium phosphate buffer (25 mM; pH 7.4) at 4 °C for 14–18 h (three buffer changes). Control enzyme (without inhibitor) was also run through the same procedure and the activity of the enzyme was determined before and after the dialysis.

recombinant human MAO-B [2] = target: T1, recombinant human MAO-B; experiment: MAO-B inhibition assay (kynuramine oxidative deamination); details: for SI MAO-A/-B: Selectivity Index = IC50 MAO-A/IC50 MAO-B; for IC50: kynuramine 50 μM, mean ± S.D. of at least triplicate observations
Method: (§1) To investigate the effect of the isolated constituents from T. diffusa on recombinant human MAO-A and MAO-B, the kynuramine oxidative deamination assay was performed in 384-well plates, as previously reported, with minor modifications. A single fixed concentration of kynuramine substrate and varying concentrations of inhibitor were used to test enzyme inhibition and determine the IC50 values. Kynuramine concentrations for MAO-A and MAO-B were 80 μM and 50 μM, respectively. These concentrations of kynuramine were twice the apparent KM value for substrate binding. The concentrations that were tested for pure constituents were from 0.01 to 100 μM, for MAO-A and MAO-B inhibition assays. Reactions were performed in a clear 384-well microplate (50 μL) with 0.1 M potassium phosphate buffer, pH 7.4. The inhibitors and compounds were dissolved in DMSO, diluted in the buffer solution, and pre-incubated at 37 °C for 10 min (no more than 1.0% DMSO final concentration). […] The enzyme product 4-hydroxyquinoline formation was recorded fluorometrically using a SpectraMax M5 fluorescence plate reader (Molecular Devices, Sunnyvale, CA, USA) with an excitation (320 nm) and emission (380 nm) wavelength, using the SoftMaxPro 6.0 program. The inhibition effects of enzyme activity were calculated as a percent of product formation when compared to the corresponding control (enzyme-substrate reaction) without inhibitors. Controls, including samples in which the enzyme or the substrate was added after stopping the reactions, were simultaneously checked to determine the interference of inherent fluorescence of the test compounds with the measurements. IC50 values for MAO-A and MAO-B inhibition were calculated from the concentration dependent inhibition curves using XLfit, a Microsoft Excel-based plug-in which performs Regression, curve fitting and statistical analysis (IDBS, Bridgewater, NJ, USA).
(§2) The dose-response curves were generated using Microsoft® Excel and the IC50 values were analyzed using XLfit software.

recombinant human MAO-A = target: T2, recombinant human MAO-A (Homo sapiens, UniProt P21397); experiment: MAO-A inhibition assay (kynuramine oxidative deamination); details: kynuramine 80 μM; mean ± S.D. of at least triplicate observations
T2 construct: purchased BD Biosciences (Bedford, MA, USA)
T2 sequence (P21397 1-527): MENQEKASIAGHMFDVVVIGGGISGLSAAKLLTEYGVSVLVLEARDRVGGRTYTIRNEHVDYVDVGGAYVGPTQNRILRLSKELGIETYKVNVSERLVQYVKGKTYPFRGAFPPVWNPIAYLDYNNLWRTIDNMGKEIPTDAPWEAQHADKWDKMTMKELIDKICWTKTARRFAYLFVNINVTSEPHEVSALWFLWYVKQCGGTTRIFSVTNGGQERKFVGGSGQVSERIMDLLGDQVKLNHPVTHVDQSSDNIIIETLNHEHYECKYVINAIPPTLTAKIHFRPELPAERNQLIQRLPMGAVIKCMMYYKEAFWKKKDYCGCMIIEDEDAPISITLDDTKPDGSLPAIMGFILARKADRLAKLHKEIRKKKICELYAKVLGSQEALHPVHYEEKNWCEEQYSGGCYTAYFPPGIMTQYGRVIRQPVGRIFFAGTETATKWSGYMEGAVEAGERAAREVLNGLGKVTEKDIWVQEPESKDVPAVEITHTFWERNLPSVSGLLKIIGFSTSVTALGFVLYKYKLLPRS
Method: as §1, §2

recombinant human MAO-B [3] = target: T1, recombinant human MAO-B; experiment: Enzyme kinetics and mechanism studies (Lineweaver-Burk); details: for Type of Inhibition Monoamine Oxidase-B: mechanism / reversibility
Method: The assays were run at varying concentrations of the substrate and fixed concentrations of the inhibitor. The Ki (i.e., inhibition/binding affinity) values were computed with double reciprocal Lineweaver–Burk plots.
The controls without inhibitor were also simultaneously run. The results were analyzed by standard double reciprocal Line–Weaver Burk plots for computing Km and Vmax values, which were further analyzed to determine Ki values.

recombinant human MAO-B [4] = target: T1, recombinant human MAO-B; experiment: Time-dependent assay for enzyme inhibition; details: 0.500 μM; pre-incubation 0–15 min
Method: The control without inhibitors was also run simultaneously. The activity of the enzyme was determined, as described above, and the percentage of enzyme activity remaining was plotted against the pre-incubation time to determine the time-dependence of inhibition.
The controls without inhibitors were also simultaneously run. The activities of the enzymes were determined, as described above, and the percentage of enzyme activity remaining was plotted against the pre-incubation time to determine the time-dependence of inhibition.

| SMILES | inhibition of MAO-B activity after incubation, before dialysis (recombinant human MAO-B [1]; 1.0 and 2.0 μM, 20 min incubation) [%] | activity of the enzyme recovered after equilibrium dialysis (recombinant human MAO-B [1]; 1.0 and 2.0 μM, dialyzed overnight) | reversibility of binding to MAO-B (recombinant human MAO-B [1]; equilibrium dialysis) | selectivity for MAO-B over MAO-A (recombinant human MAO-B [2]) [fold] | SI MAO-A/-B (recombinant human MAO-B [2]) | plateau of concentration-dependent inhibition of MAO-B (recombinant human MAO-B [2]; higher concentrations, ~20% activity remaining) | IC50 (recombinant human MAO-B [2]) [µM] | IC50 (recombinant human MAO-A) [µM] | Type of Inhibition Monoamine Oxidase-B (recombinant human MAO-B [3]) | Type of Inhibition Monoamine Oxidase-B (recombinant human MAO-B [3]; listed as acacetin 7-methyl ether) | Ki (recombinant human MAO-B [3]; varying kynuramine, mean ± S.D. of triplicate experiments, read-out: Ki Monoamine Oxidase-B) [µM] | time dependence of binding/inhibition of MAO-B (recombinant human MAO-B [4]) |
| --- | --- | --- | --- | --- | --- | --- | --- | --- | --- | --- | --- | --- |
| COc1ccc(-c2cc(=O)c3c(O)cc(OC)cc3o2)cc1 [Acacetin 7-methyl ether, 5-hydroxy-4′, 7-dimethoxyflavone] | > 60 | ~ 80% | partially reversible | > 500 | >505.051 | ~ 80 % inhibition | 0.198 ± 0.001 | > 100 | Competitive/Partially Reversible | reversible competitive inhibitor | 0.045 ± 0.003 | time-independent; also recorded: not dependent on the pre-incubation time |
| COc1ccc(-c2cc(=O)c3c(O)cc(O)cc3o2)cc1 [Acacetin] | – | – | – | – | – | – | – | 0.115 ± 0.004 | Competitive/Reversible | – | – | – |
| O=C(/C=C/c1ccc(O)cc1)OC[C@H]1O[C@@H](Oc2cc(O)c3c(=O)cc(-c4ccc(O)cc4)oc3c2)[C@H](O)[C@@H](O)[C@@H]1O [Apigenin-7-O-β-D-(6-O-p-coumaroyl) glucoside] | – | – | – | – | 1.023 | – | 22 ± 1.76 | 22.5 ± 4.44 | – | – | – | – |
| C[C@@H]1O[C@@H](O[C@@H]2[C@@H](O)[C@H](O)[C@@H](CO)O[C@H]2c2c(O)cc(O)c3c(=O)cc(-c4ccc(O)cc4)oc23)[C@H](O)[C@H](O)[C@H]1O [Rhamnosylvitexin] | – | – | – | – | 1.557 | – | 26.3 ± 0.277 | 40.9 ± 6.81 | – | – | – | – |
| COc1cc(-c2cc(=O)c3c(O)cc(O[C@@H]4O[C@H](CO)[C@@H](O)[C@H](O)[C@H]4O)cc3o2)cc(OC)c1O [Tricin-7-glucoside] | – | – | – | – | 1.854 | – | 27.4 ± 0.819 | 50.9 ± 0.506 | – | – | – | – |
| COc1cc(O)c2c(=O)cc(-c3ccc(O)c(OC)c3)oc2c1 [Vetulin] | – | – | – | – | 42.056 | – | 0.447 ± 0.01 | 18.8 ± 0.291 | – | – | – | – |
